According to PubChem BioAssay (NCI):
“And” between values parts separate entries of the source, which are not always exact repeats. Identical values can stand only once.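 Tested at 5 concentrations; 48 h exposure; 96-well plates; endpoints linearly interpolated, else capped at highest concentration. GI50 marks 50% less growth. The concentration for full growth arrest is given as TGI.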

Key:
Test in all cases: NCI-60 cell line screen, 48 h
MCF7 breast = test system: MCF7 breast
UACC-257 melanoma = test system: UACC-257 melanoma
SK-MEL-28 melanoma = test system: SK-MEL-28 melanoma
HT29 colon = test system: HT29 colon
CCRF-CEM leukemia = test system: CCRF-CEM leukemia
UACC-62 melanoma = test system: UACC-62 melanoma
MDA-MB-435 = test system: MDA-MB-435
MOLT-4 leukemia = test system: MOLT-4 leukemia
DMS 273 small cell lung = test system: DMS 273 small cell lung
DMS 114 small cell lung = test system: DMS 114 small cell lung

| SMILES | TGI (MCF7 breast) | TGI (UACC-257 melanoma) [µM] | TGI (SK-MEL-28 melanoma) [µM] | TGI (HT29 colon) [µM] | TGI (CCRF-CEM leukemia) [µM] | TGI (UACC-62 melanoma) [µM] | TGI (MDA-MB-435) [µM] | TGI (MOLT-4 leukemia) [µM] | TGI (DMS 273 small cell lung) [µM] | TGI (DMS 114 small cell lung) [µM] | GI50 (MCF7 breast) [µM] | GI50 (UACC-257 melanoma) [µM] | GI50 (SK-MEL-28 melanoma) [µM] | GI50 (HT29 colon) [µM] | GI50 (CCRF-CEM leukemia) [µM] | GI50 (UACC-62 melanoma) [µM] | GI50 (MDA-MB-435) [µM] | GI50 (MOLT-4 leukemia) [µM] |
| --- | --- | --- | --- | --- | --- | --- | --- | --- | --- | --- | --- | --- | --- | --- | --- | --- | --- | --- |
| c1ccc2nc3c(nc2c1)sc1ccccc13 | > 100 µM | > 100 | > 100 | > 100 | > 100 | 79.3 | > 100 | > 100 | – | – | – | – | – | – | – | – | – | – |
| Cc1nc([N+](=O)[O-])cn1CC(=N)N | – | > 100 | > 100 | > 100 | > 100 | > 100 | – | > 100 | > 100 | > 100 | – | – | – | – | – | – | – | – |
| CC(C)(S)C(N)C(=O)O (stereo not drawn) | 2200 µM and > 100 µM | > 5000 | > 5000 | > 5000 | > 5000 | > 5000 | > 5000 | > 5000 | – | – | 994 | 4860 | > 5000 | > 5000 | 612 | 4760 | 1890 | 3040 |
| O=C(Nc1ccc(-n2ccc3c(NC(=O)c4ccccc4)nccc32)cc1)Nc1ccc(Cl)c(Cl)c1 | 2.37 µM | 4.52 | 3.07 | 2.33 | 1.93 | 2.83 | 2.81 | 8.56 | – | – | 1.1 | 1.96 | 1.49 | 0.664 | 0.252 | 1.23 | 1.31 | 0.908 |
| CCCCCOc1ccc(/C=N/Nc2cc(C)nc3ccc(Br)cc23)cc1 | 3.68 µM | 3.6 | 3.1 | 4.24 | 3.51 | 3.13 | 3.18 | 3.58 | – | – | 1.71 | 1.88 | 1.65 | 1.94 | 1.54 | 1.66 | 1.76 | 1.73 |
| CCCOc1ccc2sc(NC(=O)OC)nc2c1 | > 100 µM | > 100 | > 100 | > 100 | > 28.4 | > 100 | 0.587 | > 100 | – | – | 1.08 | > 100 | 18.6 | 0.465 | 2.07 | 3.64 | 0.215 | 2.73 |
| OCc1ccn2c1[C@@H](O)CC2 | > 100 µM | > 100 | > 100 | > 100 | > 100 | > 100 | > 100 | > 100 | – | – | – | – | – | – | – | – | – | – |
| CN[C@@H](C)[C@@H](NC)c1ccccc1 | – | > 100 | > 100 | > 100 | > 100 | > 100 | – | > 100 | > 100 | > 100 | – | – | – | – | – | – | – | – |
| CC(C)N(CCn1c2c3ccccc3ccc2c2oc(=O)c3ccccc3c21)C(C)C | – | > 100 | > 100 | > 100 | > 100 | > 100 | – | > 100 | – | > 100 | – | – | – | – | – | – | – | – |
